Reference: ChEMBL document CHEMBL1138271, “Discovery of 5-substituted-6-chlorouracils as efficient inhibitors of human thymidine phosphorylase” (J Med Chem, 2007)

Key:
[1] = Acid dissociation constant, pKa of the compound; format: physicochemical
Thymidine phosphorylase [2] = biological target: T1, Thymidine phosphorylase (Homo sapiens, UniProt P19971); assay: Inhibition of human placental thymidine phosphorylase
T1 sequence (P19971 whole entry): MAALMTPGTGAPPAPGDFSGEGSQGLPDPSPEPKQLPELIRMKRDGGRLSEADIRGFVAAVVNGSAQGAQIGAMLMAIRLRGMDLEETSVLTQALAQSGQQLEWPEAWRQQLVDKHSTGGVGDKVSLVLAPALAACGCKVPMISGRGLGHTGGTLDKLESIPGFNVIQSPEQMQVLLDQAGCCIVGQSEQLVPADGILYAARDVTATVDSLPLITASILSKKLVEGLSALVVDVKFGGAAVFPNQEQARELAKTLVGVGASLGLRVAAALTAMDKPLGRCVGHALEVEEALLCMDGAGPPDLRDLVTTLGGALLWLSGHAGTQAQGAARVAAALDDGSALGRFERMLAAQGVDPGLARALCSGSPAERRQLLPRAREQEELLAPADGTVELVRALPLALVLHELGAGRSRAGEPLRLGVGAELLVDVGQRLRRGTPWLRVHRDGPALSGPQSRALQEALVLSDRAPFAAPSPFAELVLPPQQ

Thymidine phosphorylase [3] = biological target: T1, Thymidine phosphorylase; assay: Inhibition of human recombinant thymidine phosphorylase expressed in V79 cells; format: cell-based

SMILES	pKa [1]	Ki (Thymidine phosphorylase [2])	Ki (Thymidine phosphorylase [3])
O=c1[nH]c(Cl)c(C2=CCCC2)c(=O)[nH]1	5.8		
CCc1c(Cl)[nH]c(=O)[nH]c1=O		> 20 µM	> 20 µM

Other lines, results leading:

pKa [1]	Ki (Thymidine phosphorylase [2])	Ki (Thymidine phosphorylase [3])	SMILES
	> 20 µM	> 20 µM	NCCNc1[nH]c(=O)[nH]c(=O)c1-c1ccccc1
	> 20 µM	> 20 µM	O=c1[nH]c(N2CCCC2)c(-c2ccccc2)c(=O)[nH]1
	> 20 µM	> 20 µM	Cc1[nH]c(=O)[nH]c(=O)c1-c1ccccc1
